“And” between values parts separate entries of the source, which are not always exact repeats. Equal values may be shown once.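 Cells were grown in 96-well plates and exposed to each compound for 48 hours at five concentrations; endpoints were interpolated linearly between bracketing concentrations, or set to the highest concentration if not reached. GI50 is the concentration that inhibits growth by half. TGI: concentration producing complete growth inhibition.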 Where a SMILES comes first, the peptide text is derived from it. The star is where a group is joined. Boc = CC(C)(C)OC(=O)*; Bn = c1ccc(C*)cc1
Legend:
Test in all cases: NCI-60 cell line screen, 48 h
HS 578T breast = tested on: HS 578T breast
MOLT-4 leukemia = tested on: MOLT-4 leukemia
U251 CNS = tested on: U251 CNS
SF-295 CNS = tested on: SF-295 CNS
M14 melanoma = tested on: M14 melanoma
MALME-3M melanoma = tested on: MALME-3M melanoma
NCI-H522 lung = tested on: NCI-H522 lung
MCF7 breast = tested on: MCF7 breast
SW-620 colon = tested on: SW-620 colon
LOX IMVI melanoma = tested on: LOX IMVI melanoma
HL-60(TB) leukemia = tested on: HL-60(TB) leukemia
K-562 leukemia = tested on: K-562 leukemia
SF-268 CNS = tested on: SF-268 CNS
UO-31 renal = tested on: UO-31 renal
MDA-MB-435 = tested on: MDA-MB-435
NCI-H23 lung = tested on: NCI-H23 lung

Row | SMILES | TGI (HS 578T breast) | TGI (MOLT-4 leukemia) | TGI (U251 CNS) | TGI (SF-295 CNS) | TGI (M14 melanoma) | TGI (MALME-3M melanoma) | TGI (NCI-H522 lung) | TGI (MCF7 breast) | TGI (SW-620 colon) | TGI (LOX IMVI melanoma) | TGI (HL-60(TB) leukemia) | TGI (K-562 leukemia) | TGI (SF-268 CNS) | TGI (UO-31 renal) | TGI (MDA-MB-435) | TGI (NCI-H23 lung) | GI50 (SF-295 CNS) | GI50 (M14 melanoma) | GI50 (HL-60(TB) leukemia) | GI50 (MDA-MB-435)
1 | CCOC(=O)C1(N)CC1 | > 100 µM | > 100 µM | > 100 µM | > 100 µM | > 100 µM | > 100 µM | > 100 µM | > 100 µM | > 100 µM | > 100 µM | > 100 µM | > 100 µM | > 100 µM | > 100 µM | > 100 µM | > 100 µM | – | – | – | –
2 | CN1CC2=C(NC(=S)NC2c2ccccc2Cl)/C(=C/c2ccccc2Cl)C1 (stereo not drawn) | > 100 µM | 75.5 µM | > 100 µM | > 100 µM | > 100 µM | 74.4 µM | > 100 µM | > 100 µM | > 100 µM | > 100 µM | 62.6 µM | > 100 µM | > 100 µM | 93.1 µM | > 100 µM | > 100 µM | – | – | – | –
3 | CNC(=O)C(CC(C)C)NC(=O)C(C)NC(=O)C(Cc1ccc(OCc2ccccc2)cc1)NC(=O)C(COCc1ccccc1)NC(=O)OC(C)(C)C (stereo not drawn) (Boc-S(Bn)Y(Bn)AL-NHMe; configuration not given here) | 58.1 µM and 31.4 µM | 22.9 µM and 38.5 µM | > 41.3 µM and 31.7 µM | > 61 µM and 41.2 µM | > 100 µM and 28.2 µM | > 100 µM and 18.1 µM | 37.4 µM | 35.5 µM and 26.2 µM | 31 µM and 28.7 µM | 27.5 µM and 48.8 µM | 30.2 µM and > 100 µM | > 48 µM and 38.4 µM | 53.8 µM and 46.5 µM | > 100 µM | > 55.9 µM and 27.9 µM | > 71.1 µM and 43.3 µM | > 43.9 µM and 21 µM | 42.1 µM and 15 µM | 9.51 µM and 3.9 µM | 20.7 µM and 10.1 µM
4 | O=C(Nc1cccc(C(=O)NCCCO)c1)/C(=C/c1ccccc1)NC(=O)c1ccccc1 | > 100 µM | > 100 µM | > 100 µM | > 100 µM | > 100 µM | > 100 µM | > 100 µM | > 100 µM | > 100 µM | > 100 µM | > 100 µM | > 100 µM | > 100 µM | > 100 µM | > 100 µM | > 100 µM | – | – | – | –
5 | C=C(Cl)C(C)(Cl)CCC(Cl)C(C)C (stereo not drawn) | > 100 µM | > 100 µM | > 100 µM | > 100 µM | > 100 µM | > 100 µM | > 100 µM | > 100 µM | > 100 µM | 47.6 µM | > 100 µM | > 100 µM | > 100 µM | > 100 µM | > 100 µM | > 100 µM | – | – | – | –
6 | CC1(C)CCCCCCCCCC2CC2CCC(C)(C)C1=O (stereo not drawn) | 82.3 µM | 80.1 µM | 33 µM | 33.9 µM | 48.6 µM | 49 µM | 30 µM | 30 µM | > 100 µM | 34.9 µM | 49.1 µM | 32.6 µM | 43.1 µM | 36.9 µM | 55.5 µM | > 100 µM | – | – | – | –
7 | CC(=O)Nc1cc2nc3n(c2cc1C)CCC3OC(C)=O (stereo not drawn) | > 100 µM | > 100 µM | > 100 µM | > 100 µM | > 100 µM | > 100 µM | > 100 µM | > 100 µM | > 100 µM | > 100 µM | > 100 µM | > 100 µM | > 100 µM | > 100 µM | > 100 µM | > 100 µM | – | – | – | –
8 | CC(=O)NC1COC(COC(=O)CCCCCCCCCCNC(=O)c2ccc([N+](=O)[O-])c3c(=O)c4ccccc4[nH]c23)C(O)C1OC(C)C(=O)NC(C(=O)NC(CCC(N)=O)C(=O)OCc1ccccc1)C(C)C (stereo not drawn) | 17.6 µM | 61.3 µM | 27.9 µM | 42.7 µM | 66.3 µM | > 83.8 µM | 35.4 µM | 14.8 µM | > 72.8 µM | 30.1 µM | 6.72 µM | 54.2 µM | 32.8 µM | 19.1 µM | > 100 µM | 27.3 µM | – | – | – | –
9 | Cc1cccc(C)c1N=Nc1ccc(O)c(CN(C)C)c1 | > 100 µM | > 100 µM | > 100 µM | > 100 µM | 58.1 µM | 76.2 µM | > 100 µM | > 100 µM | > 100 µM | > 100 µM | > 100 µM | > 100 µM | > 100 µM | > 100 µM | > 100 µM | > 100 µM | – | – | – | –
10 | CC(C)(C)n1c(=O)n2n(c1=O)C1c3cccc4cccc(c34)C2C2c3cccc4cccc(c34)C1n1c(=O)n(C(C)(C)C)c(=O)n12 | > 100 µM | > 100 µM | > 100 µM | > 100 µM | > 100 µM | > 100 µM | > 100 µM | > 100 µM | > 100 µM | > 100 µM | > 100 µM | > 100 µM | > 100 µM | > 100 µM | > 100 µM | > 100 µM | – | – | – | –
11 | C(#CC1(Nc2ccccc2)CCN(Cc2ccccc2)CC1)C1(Nc2ccccc2)CCN(Cc2ccccc2)CC1 | 37.2 µM | 32.7 µM | 43.6 µM | > 56.2 µM | > 100 µM | > 65.6 µM | > 56.2 µM | > 56.2 µM | > 56.2 µM | 38.7 µM | 11.7 µM | 16.1 µM | 47.8 µM | > 84.7 µM | > 100 µM | > 56.2 µM | – | – | – | –
12 | COc1cc(CNc2c3ccccc3nc3ccccc23)cc(OC)c1OC | 29.8 µM | > 22 µM | 19.5 µM | 14.4 µM | 8.76 µM | 12.5 µM | 11.6 µM | > 32.9 µM | 10.1 µM | 6.75 µM | > 21.3 µM | 2 µM | 16.5 µM | 11.5 µM | 12.9 µM | 18.5 µM | – | – | – | –
13 | Cc1cn(C2CCN(CC3COC(C)(C)O3)O2)c(=O)[nH]c1=O (stereo not drawn) | > 100 µM | > 100 µM | > 100 µM | > 100 µM | > 100 µM | > 100 µM | > 100 µM | > 100 µM | > 100 µM | > 100 µM | > 100 µM | > 100 µM | > 100 µM | > 100 µM | > 100 µM | > 100 µM | – | – | – | –
14 | O=C(O)C12CCC(CC1=O)C2 (stereo not drawn) | > 100 µM | > 100 µM | > 100 µM | > 100 µM | > 100 µM | > 100 µM | > 100 µM | > 100 µM | > 100 µM | > 100 µM | > 100 µM | > 100 µM | > 100 µM | > 100 µM | > 100 µM | > 100 µM | – | – | – | –
